The record followed here is patent publication US11110075B2, “Use of daphnetin in improving function of aortic endothelial cell” (XI'AN JIAOTONG UNIVERSITY, priority 2019, dated 2021).

SMILES strings stand for the structures.

The test system of assay [1] is interleukin-6 (IL-6) mRNA. The assay is described as follows: IL-6 mRNA level detection by RT-PCR in palmitic acid treated HAECs. In kind it is cell-based, human. As to conditions: FIG. 2. On the procedure:
(§1) Human aortic endothelial cells (HAECs) were purchased from Shanghai Bioleaf Biotech Co., Ltd. Palmitic acid (PA) was purchased from SIGMA Company. A palmitic acid solution having a concentration of 500 μM was prepared by dissolving palmitic acid in water. A cell culture incubator was adopted to culture the cells in a temperature-constant, humidified, sterile condition. The cells were cultured in wells of culture plates at an atmosphere of 95% air and 5% CO2 at 37° C. in the incubator. The experiments were performed on different experimental groups of cells.
The HAECs that were previously cultured in a 12-well cell culture plate were divided into 4 different experimental groups and respectively applied with daphnetin in the respective concentrations, 0 μM, 0 μM, 50 μM, 100 μM, and all followed with an 24-hour incubation. Then, the last 3 groups of cells were respectively applied with 500 μM palmitic acid, the first was not, and all followed with another 24-hour incubation. The detecting of mRNA levels corresponding to interleukin-6 (IL-6) was respectively carried out on each group of cells by using reverse transcription RNA and real-time quantitative polymerase chain reaction (PCR), and the specific method is as follows:
The medium for cell culture in the wells was removed. 500 μL of TRIzol™ reagent was added to each well, and the culture plate was then shaken at room temperature for 5 minutes. Then the cells in the wells were collected and transferred to a 1.5 mL eppendorf (EP) tube. 200 μl (taking […] of total volume of the substance in the EP tube) of chloroform was then added to the EP tube for extraction of […]. The samples were then vigorously stirred for 15 seconds, rested for 15 minutes at room temperature, and then centrifuged at a relative centrifugal force of 12,000 g for 10 minutes at 4° C. […] The concentration of the solution was measured by an ultraviolet spectrophotometer. […]

Assay [2] relates to mitochondrial membrane fusion related protein Mfn1. The assay is described as follows: Western blot protein detection of Mfn1 in palmitic acid treated HAECs. The format is cell-based, human. As to conditions: FIG. 3A, 3B. The procedure: (§2) Human aortic endothelial cells (HAECs) were purchased from Shanghai Bioleaf Biotech Co., Ltd. Palmitic acid (PA) was purchased from SIGMA Company. A palmitic acid solution having a concentration of 500 μM was prepared by dissolving palmitic acid in water. A cell culture incubator was adopted to culture the cells in a temperature-constant, humidified, sterile condition. The cells were cultured in wells of culture plates at an atmosphere of 95% air and 5% CO2 at 37° C. in the incubator. The experiments were performed on different experimental groups of cells. The HAECs that were previously cultured in a 6-well cell culture plate were divided into 3 different experimental groups, the control (Ctrl) group, the PA group, and the DAP+PA group. The cells of the DAP+PA group were applied with daphnetin in a concentration of 100 μM followed with a 24-hour incubation. Then, the cells of both the PA group and the DAP+PA group were applied with 500 μM palmitic acid, all followed with another 24-hour incubation. The protein detection was respectively carried out on each group of cells as follows. The medium for cell culture in the wells was removed. 150 μL of IP lysis buffer was added to each well of the culture plate. […] The supernatants were collected, and the proteins therein were quantified by bicinchoninic acid (BCA) assay, and normalized. […] Target proteins were detected by chemiluminescence.
(In general: In western blotting, separated proteins are transferred to a membrane and probed.)

Assay [3] relates to mitochondrial membrane fusion related protein Mfn2. The assay is described as follows: Western blot protein detection of Mfn2 in palmitic acid treated HAECs. In kind it is cell-based, human. The following applies: 500 μM palmitic acid 24 h (PA group) vs control group, FIG. 3A, 3B. The procedure:
as §2

Assay [4] deals with human aortic endothelial cells (HAECs). The assay is described as follows: MTT assay, viability of HAECs inhibited by palmitic acid. In kind it is cell-based. As to conditions: HAECs pretreated with 10 μM daphnetin 24 h, then 500 μM palmitic acid 24 h; vs palmitic acid treated cells without daphnetin; FIG. 1. The procedure:
as §1
The HAECs that were previously cultured in a 12-well cell culture plates were divided into 6 different experimental groups and respectively applied with daphnetin in different concentrations, 0 μM, 1 μM, 10 μM, 50 μM, 100 μM, and 200 μM, all followed with an 24-hour incubation. Then, each of the 6 groups of cells was further divided into two subgroups; one was applied with 500 μM palmitic acid, the other was not, and all followed with another 24-hour incubation.
An MTT assay was performed to all groups of cells. […] The absorbance was measured at a wavelength of 490 nm in a spectrophotometer. The absorbance of this colored solution can be quantified by measuring at a certain wavelength (usually between 500 and 600 nm) by a spectrophotometer.

As for `CCCCCCCCCCCCCCCC(=O)O` [palmitic acid], the “increase of mRNA level corresponding to IL-6” value in assay [1] (HAECs, 500 μM palmitic acid 24 h without daphnetin, vs control group) was “about 20 times”. The “expression of Mfn1” value in assay [2] (500 μM palmitic acid 24 h (PA group) vs control group) is recorded as “reducing the expression”. Besides, in assay [3], the “expression of Mfn2” value is given as “reducing the expression”.
In the case of `O=c1ccc2ccc(O)c(O)c2o1` [daphnetin, 7,8-dihydroxycoumarin], in assay [4], the relative cell viability entry is recorded as “higher viabilities”. Further, the “concentration dependence of inhibition of IL-6 mRNA level” value in assay [1] (HAECs pretreated with 50 μM or 100 μM daphnetin, then 500 μM palmitic acid) is recorded as “inhibition effect increases with the concentration”. The “mRNA level corresponding to IL-6” value in assay [1] (HAECs pretreated with 100 μM daphnetin 24 h, then 500 μM palmitic acid 24 h, vs palmitic acid alone) is given as “significantly decreased”. Besides, the “relative protein expression level of Mfn1” value in assay [2] (100 μM daphnetin 24 h then 500 μM palmitic acid 24 h (DAP+PA group) vs PA group) was “significantly increasing”.
